Assay: in vitro
Settings: human, hela cells, % viability

Row | SMILES | viability at 28.5 h, 10 µM [%]
1 | Cn1ccnc1C1(O)C2CCCC1CN(Cc1ccccc1F)C2 (stereo not shown) [CBK285206] | 97.2
2 | Cn1nccc1C(=O)NC(Cc1cccs1)c1ccccn1 (stereo not shown) [CBK285207] | 96.1
3 | Cc1ccc(C(=O)NC(Cc2cccs2)c2ccccn2)c(=O)[nH]1 (stereo not shown) [CBK285210] | 89.8
4 | Cc1ccn2cc(-c3ccc4c(c3)CCN4S(C)(=O)=O)nc2c1 [CBK285221] | 88.3
5 | O=C(NC1CC1)C1(Cc2ccccc2-c2cccnc2)CCOCC1 [CBK285222] | 88.7
6 | CC(=O)N1CCc2cc(-c3cc4ccccn4c3)ccc21 [CBK285224] | 104
7 | Cc1cccn2cc(-c3ccc4c(c3)CCN4S(C)(=O)=O)cc12 [CBK285226] | 95.5
8 | CC(=O)N1CCc2cc(-c3cc4cc(C)ccn4c3)ccc21 [CBK285228] | 75.2
9 | Cn1ncc2c1CCCN(C(=O)COc1ccc(F)cc1F)C2 [CBK285229] | 90.6
10 | CC(Oc1ccc(F)cc1)C(=O)N1CCCc2c(cnn2C)C1 (stereo not shown) [CBK285230] | 82.1
11 | Cn1ncc2c1CCCN(C(=O)Cc1ccc(Cl)cc1)C2 [CBK285231] | 106
12 | CC1CCc2noc(C3CCN(C(=O)c4ccnn4C)CC3)c2C1 (stereo not shown) [CBK285232] | 105
13 | Cc1nc(C2CCCN(C(=O)c3cccnc3)C2)c2sccn12 (stereo not shown) [CBK285233] | 93
14 | Cc1nc(C2CCCN(C(=O)c3ccnn3C)C2)c2sccn12 (stereo not shown) [CBK285235] | 87.2
15 | Cc1csc2c(C3CCCN(C(=O)c4cc[nH]n4)C3)nc(C)n12 (stereo not shown) [CBK285238] | 88.1
16 | Cc1nc(C2CCN(C(=O)c3cscn3)CC2)c2sccn12 [CBK285240] | 107
17 | Cc1csc2c(C3CCN(C(=O)c4cccnc4)CC3)nc(C)n12 [CBK285242] | 85.1
18 | Cc1csc2c(C3CCN(C(=O)c4ccncc4)CC3)nc(C)n12 [CBK285243] | 84.4
19 | Cc1cc(C(=O)N2CCC(c3nc(C)n4c(C)csc34)CC2)on1 [CBK285247] | 99.3
20 | Cc1csc2c(C3CCN(C(=O)c4ccnn4C)CC3)nc(C)n12 [CBK285249] | 94.3
21 | Cc1ccn2cc(-c3ccc4c(c3)CC(C)N4S(C)(=O)=O)cc2c1 (stereo not shown) [CBK285253] | 89
22 | Cn1ncc2c1CCCN(C(=O)CCc1ccccc1F)C2 [CBK285255] | 96.8
23 | CS(=O)(=O)N1CCc2cc(-c3cc4ccccn4c3)ccc21 [CBK285256] | 107

Row | SMILES | viability at 28.5 h, 10 µM [%]
24 | CCCC(=O)N1CCC(c2nc3ccccc3cc2NC(C)=O)CC1 [CBK285258] | 78.4
25 | COc1ccc(-c2cc(C3CCN(C(=O)C4CC4)C3)[nH]n2)cc1 (stereo not shown) [CBK285263] | 91.5
26 | CCNC(=O)[C@H]1CN(Cc2ccccc2)C[C@@H]1C(=O)c1ccccc1 [CBK285265] | 88.1
27 | Cc1ccc(C(=O)N2C[C@H]3CC[C@](O)(c4ccc(F)cc4)[C@H]3C2)o1 [CBK285267] | 95
28 | Cn1ccc(C(=O)NC(Cc2ccsc2)c2ccccn2)cc1=O (stereo not shown) [CBK285273] | 97.5
29 | COCC(=O)N1CCc2cc(-c3cn4ccccc4n3)ccc21 [CBK285274] | 81.9
30 | CC(=O)N1C[C@H]2CCCN(S(=O)(=O)c3cccs3)[C@H]2C1 [CBK285275] | 84.3
31 | Cc1cc(OCC(=O)N2CCCc3c(cnn3C)C2)ccc1Cl [CBK285277] | 93.3
32 | Cn1ncc2c1CCCN(C(=O)CCCOc1ccccc1F)C2 [CBK285278] | 85
33 | CS(=O)(=O)N1C2CCC(C2)[C@H]1COc1ccc(F)cc1 (stereo partly shown) [CBK285279] | 108
34 | CCS(=O)(=O)N1C2CCC(C2)[C@H]1COc1ccc(F)cc1 (stereo partly shown) [CBK285280] | 109
35 | COc1ccc(-c2cc(C3CCN(C4CCSCC4)C3)[nH]n2)cc1 (stereo not shown) [CBK285282] | 99.3
36 | COc1ccc(CC(=O)N2CCCc3c(cnn3C)C2)cc1F [CBK285285] | 87.9
37 | Cn1ncc2c1CCCN(C(=O)COc1ccc(C(C)(C)C)cc1)C2 [CBK285286] | 115
38 | Cc1ccc(OCCCC(=O)N2CCCc3c(cnn3C)C2)c(C)c1 [CBK285288] | 96.9
39 | Cc1cnccc1CN1CCC[C@@H]2CN(C(=O)CC(C)C)C[C@@H]21 [CBK285289] | 104
40 | Cc1cccc(CN2CCC[C@@H]3CN(C(=O)CC(C)C)C[C@@H]32)n1 [CBK285291] | 108
41 | CC(C)S(=O)(=O)N1C2CCC(C2)[C@@H]1COc1ccc(F)cc1 (stereo partly shown) [CBK285292] | 101
42 | CC(=O)N1C[C@H]2CCCN(S(=O)(=O)c3ccc(Cl)s3)[C@H]2C1 [CBK285293] | 105
43 | CC(C)N1C[C@@H](C(=O)NC(C)(C)C)[C@@]2(Cc3ccccc3C(=O)N2)C1 [CBK285295] | 101
44 | CCS(=O)(=O)N1C[C@H]2CC[C@](O)(c3ccc(C)cc3)[C@H]2C1 [CBK285296] | 107
45 | Cc1sc2c(C3CCN(C(=O)C4CC4)CC3)nc(C)n2c1C [CBK285298] | 101
46 | Cc1sc2c(C3CCN(C(=O)C4CC4C)CC3)nc(C)n2c1C (stereo not shown) [CBK285299] | 66.4

— paper PMC12040169 (PLOS Biology, 2025)
